Laboratory results: US5278191A, “Diphenylmethylaminoacetamide derivatives as anti-convulsants” (G. D. Searle & Co., priority 1991, dated 1994)

Assays:
[1] = Acute toxicity after oral administration; details: mouse, in vivo, mice, mortality over 15 days
Procedure: (§1) Treatment of a mammal afflicted by or susceptible to certain CNS disorders is accomplished by administration of a therapeutically-effective amount of a compound of Formula I. In particular, Compounds #1-19 of Tables I and II were evaluated by in vitro and in vivo animal model assays to determine the pharmacological properties of such compounds and their likely suitability for use as therapeutic drugs in humans. These biological assays, as described below, consisted of prevention of induced convulsions in mice, determination of acute toxicity in mice and animal behavior assays. Except as otherwise specified, the animals used in the in vivo tests were male Swiss albino mice weight 22 to 33 g [CD1, Charles River, France], housed in groups of 10 on a 12-hour dark-light cycle for at least one week before use and fasted overnight prior to testing.
(§2) The acute toxicity of compounds of the invention was determined after oral administration of the test compound to mice. Compound to be tested was suspended in a 1% tragacanth gum mucilage, and was administered by means of an intragastric probe to a group of three male mice, which doses varied from 3,000 mg/kg down to about 3 mg/kg. Doses used in the test were determined by observing toxic effects on the mice. The mortality was recorded over a period of 15 days. The LD50 results reported in Table V were calculated according to published methods [Lichtfield and Wilcoxon, J. Pharmacol. Exp. Ther., 96, 99 (1949)] and expressed in mg or test compound per kilogram of mouse body weight.

[2] = tested on: 3-mercaptopropionic acid (3-MPA)-induced convulsions; assay: 3-MPA-induced convulsions, protection of mice; assay type: in vivo, male Swiss albino mice; details: interval 30 min, 3-MPA 120 mg/kg s.c., total protected of two groups of 5 mice
Procedure: as §1
Compounds of Formula I were evaluated as inhibitors of convulsions and death induced by different convulsant agents: 3-mercaptopropionic acid (3-MPA; 120 mg/kg subcutaneously), pentylenetetrazole (PTZ, 55 mg/kg intravenously) and supramaximal electroconvulsive shocks (ECS evoked by a current intensity of 48 mA, 50 Hz. 0.2 sec duration, 10 msec square pulse, corneal electrodes) [W. van Dorsser, D. Barris, A. Cordi and J. Roba, Arch. Int. Pharmacodyn., 266, 239-249 (1983)]. The compounds of the invention were administered orally at a dosage of either 100 mg/kg or 30 mg/kg in a volume of 10 ml/kg each to 5 mice at intervals of 30 minutes or 2 hours before convulsions were induced. The number of mice protected against tonic convulsions and the number of dead mice were noted. Results are given in Table III as a score which represents the total number of mice protected for two groups of 5 animals (3-MPA).
Based upon data generated from the previously-described anti-convulsant experiments, ED50 values were calculated at which Compound #18 inhibits convulsions induced by the convulsant agents listed in Table V.

[3] = tested on: mice; design: species or system male Swiss albino mice; details: mouse, in vivo, po
Procedure: as §1, §2
Behavioral effects of compounds of the invention on animals were determined by observations taken at 5 to 6 hours and at 24 hours after administration of compounds in the acute toxicity studies. Determinations were made based on a method derived from that of S. Irwin [See R. A. Turner, Screening Methods in Pharmacology, Chapter 3, pages 22-34, Academic Press, N.Y. (1965)]. If an anomaly were noted, the observation was extended and smaller doses were tested. Possible types of behavior to be observed are as follows: analgesia (AAG), convulsions (CON), depression (DEP), exophthalmia (EOP), excitation (EXC), hyperalgesia (HAG), hypothermia (ATH), hypotonia (ATN), piloerection (PIE), palpebral ptosis (PTO), reduction of the pinna reflex (RPI), reduction of the rearing reflex (RRE), reduction of the flexion reflex (RRF), sedation (SED), tremors (TRE), cyanosis (CYA), diarrhea (DIA), increase of the pinna reflex (HPI), increase of the flexion reflex (HRF), dyspnea (DYS). Behaviors observed are reported in Table IV by numbers which represent the dose at which the behavior is observed.

Row | SMILES | LD50 at 360 h [1] [mg/kg] | Number of Mice Protected From 3-MPA-Induced Convulsions ([2]; oral 30 mpk) [mice] | Behavior: dose at which sedation (SED) is observed [3] [mg/kg] | Number of Mice Protected From 3-MPA-Induced Convulsions ([2]; oral 100 mpk) [mice] | further results
1 | NC(=O)CNC(c1ccc(F)cc1)c1ccccc1F (centres unmarked) [Compound 11, 2-[(4-fluorophenyl)(2-fluorophenyl)]methylaminoacetamide] | 315 | 8 | 100 |  | Behavior: dose at which convulsions (CON) are observed [3]: 1000 mg/kg; Behavior: dose at which depression (DEP) is observed [3]: 1000 mg/kg
2 | NC(=O)CNC(c1ccccc1)c1ccc(Br)cc1 (centres unmarked) [Compound 10, 2-[(4-bromophenyl)phenyl]methylaminoacetamide] | > 1000 | 3 | 1000 |  | 
3 | NC(=O)CNC(c1ccc(F)cc1)c1ccccc1Cl (centres unmarked) [Compound 17, 2-[(2-chlorophenyl)(4-fluoropheny)]methylaminoacetamide] |  |  |  | 10 | 
4 | Cc1ccc(C(NCC(N)=O)c2ccccc2)cc1C (centres unmarked) [Compound 6, 2-[(3,4-dimethylphenyl)phenyl]methylaminoacetamide] | 3500 | 2 | 3000 |  | Behavior: dose at which hypotonia (ATN) is observed [3]: 3000 mg/kg
5 | NC(=O)CNC(c1ccc(F)cc1)c1ccc(F)cc1 [Compound 13, 2-[di(4-fluorophenyl)]methylaminoacetamide] |  | 5 |  |  | 
6 | Cc1ccccc1C(NCC(N)=O)c1ccccc1 (centres unmarked) [Compound 4, 2-[(2-methylphenyl)phenyl]methylaminoacetamide] | 780 | 5 | 300 |  | Behavior: dose at which hypotonia (ATN) is observed [3]: 300 mg/kg
7 | NC(=O)CNC(c1ccccc1)c1ccccc1Cl (centres unmarked) [Compound 16, 2-[(2-chlorophenyl)phenyl]methylaminoacetamide] |  |  |  | 9 | 
8 | NC(=O)CNC(c1ccccc1)c1ccc(C(F)(F)F)cc1 (centres unmarked) [Compound 7, 2-[(4-trifluoromethylphenyl)phenyl]methylaminoacetamide] |  | 4 |  |  | 
9 | NC(=O)CNC(c1ccccc1)c1ccc(F)cc1 (centres unmarked) [Compound 12, 2-[(4-fluorophenyl)phenyl]methylaminoacetamide] |  | 9 |  | 10 | 
10 | NC(=O)CNC(c1ccccc1)c1cccc(Cl)c1 (centres unmarked) [Compound 15, 2-[(3-chlorophenyl)phenyl]methylaminoacetamide] |  |  |  | 9 | 
11 | Cc1ccc(C)c(C(NCC(N)=O)c2ccccc2)c1 (centres unmarked) [Compound 9, 2-[(2,5-dimethylphenyl)phenyl]methylaminoacetamide] |  | 1 |  |  | 
12 | Cc1ccc(C(NCC(N)=O)c2ccccc2)cc1 (centres unmarked) [Compound 3, 2-[(4-methylphenyl)phenyl]methylaminoacetamide] | > 3000 | 1 | 1000 |  | Behavior: dose at which depression (DEP) is observed [3]: 3000 mg/kg
13 | NC(=O)CNC(c1ccc(Cl)cc1)c1ccc(Cl)cc1 [Compound 8, 2-[di(4-chlorophenyl)]methylaminoacetamide] |  | 1 |  |  | 
14 | Cc1ccc(C(NCC(N)=O)c2ccccc2)c(C)c1 (centres unmarked) [Compound 14, 2-[(2,4-dimethylphenyl)phenyl]methylaminoacetamide] |  | 3 |  | 6 | 
15 | COc1ccc(C(NCC(N)=O)c2ccccc2)cc1 (centres unmarked) [Compound 2, 2-[(4-methoxyphenyl)phenyl]methylaminoacetamide] |  |  |  | 8 | 
